In patent publication US20250154198A1, “PEPTIDE INHIBITORS OF INTERLEUKIN-23 RECEPTOR” (Zealand Pharma A/S, priority 2021, published 2025):
*1 amine or outer side, *2 acyl side, *3 side chain or, on linkers, in order; H or OH if unused. Where a SMILES comes first, the peptide text is derived from it. Bridges are numbered along the chain shown (N, C = ends). [ ]: non-standard residue; d: D form. The star is where a group is joined. Trp(7-F) = N[C@@H](Cc1c[nH]c2c(F)cccc12)C(=O)O; 2Nal = N[C@@H](Cc1ccc2ccccc2c1)C(=O)O; AEF = NCCOc1ccc(C[C@H](N)C(=O)O)cc1; X20 = O=C(c1ccc(CCN[*:1])cc1)[*:2]; X1 = O=C(Cc1ccc(CN[*:1])cc1)[*:2]; 3Pal = N[C@@H](Cc1cccnc1)C(=O)O; 4Pal = N[C@@H](Cc1ccncc1)C(=O)O; X22 = NC(=O)C[C@@H](N*)c1cccnc1; αMeL = CC(C)C[C@](C)(N)C(=O)O; CH2COCH2 = O=C(C[*:1])C[*:2]; 3Amb = NCc1cccc(C(=O)O)c1; Pyrrolidide = C1CCN(*)C1; Dab = NCC[C@H](N)C(=O)O

Molecular target: T1, human IL-23R (Homo sapiens, UniProt Q5VWK5)
T1 construct: UniProtKB—Q5VWK5, amino acids 22-629; secretion signal of the plasmid (Promega N1371); expressed in transfected cells
T1 sequence (Q5VWK5 22-629): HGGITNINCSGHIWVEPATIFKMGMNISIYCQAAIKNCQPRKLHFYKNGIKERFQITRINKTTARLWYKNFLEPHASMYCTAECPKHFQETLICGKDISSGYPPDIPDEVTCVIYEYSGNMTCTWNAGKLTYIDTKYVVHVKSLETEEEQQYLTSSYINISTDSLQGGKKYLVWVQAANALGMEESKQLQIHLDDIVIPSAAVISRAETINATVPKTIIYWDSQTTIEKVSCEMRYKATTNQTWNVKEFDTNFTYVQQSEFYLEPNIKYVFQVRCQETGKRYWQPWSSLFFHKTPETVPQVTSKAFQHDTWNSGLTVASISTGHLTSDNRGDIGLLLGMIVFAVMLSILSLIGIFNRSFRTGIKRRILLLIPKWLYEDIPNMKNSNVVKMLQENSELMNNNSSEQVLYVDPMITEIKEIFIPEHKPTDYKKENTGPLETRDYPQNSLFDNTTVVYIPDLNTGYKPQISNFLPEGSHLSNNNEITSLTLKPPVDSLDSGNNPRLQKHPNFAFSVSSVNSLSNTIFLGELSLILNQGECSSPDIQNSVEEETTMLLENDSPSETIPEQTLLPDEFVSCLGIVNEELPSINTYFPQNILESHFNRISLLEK
Assay: Binding assay (NanoBRET displacement of fluorophore-labelled reference compound) for estimating binding affinity to human IL-23R
Conditions: Table 2-10b; read-out: Ki IL-23R
Text: Binding Assay for Estimating Binding Affinity of Compounds to Human IL-23R
The compound binding affinity for IL-23R was estimated by the ability of compounds to displace a fluorophore-labelled reference compound from the human IL-23R. The assay principle relies on Bioluminescence Resonance Energy Transfer (BRET) between a fluorophore-labelled reference compound binding to the IL-23R part of a fusion protein consisting of the IL-23R fused to a Nanoluc luciferase enzyme (Nanoluc). The Nanoluc is placed in the N-terminus in close proximity to the binding domain of the ligand. Upon close proximity between the fluorophore of the fluorophore-labelled compound and the Nanoluc of the fusion protein, bioluminescence energy generated from conversion of a Nanoluc substrate, is transferred to the fluorophore resulting in an increase in BRET. In presence of an unlabelled compound, the unlabelled compound displaces the fluorophore-labelled peptide from its binding site resulting in a decrease in BRET. The concentration for which half of the fluorophore-labelled peptide is displaced by the unlabelled compound depends on the affinity of the compound for the IL-23R, and is termed the IC50 concentration. An estimated affinity (K) of the unlabelled compound for the IL-23R may be calculated using the Cheng-Prussov equation, which takes into account the concentration of the fluorophore-labelled compound used, and the affinity of the fluorophore-labelled compound for IL-23R.
The plasmid also contained a gene to confer resistance for the antibiotic hygromycin. A cell line stably expressing the Nluc-IL23R fusion protein was generated by transfection of HEK293 cells with the expression plasmid and selected with hygromycin for 3 weeks in Growth medium consisting of DMEM w/Glutamax-I containing, 10% V/V FBS, 1% V/V P/S, 1 mM Sodium Pyruvate, and 1×NEAA, and 0.3 mg/mL hygromycin. The remaining cells were propagated and considered a stable expressing Nluc-IL23R fusion protein pool clone.
Cells expressing the Nluc-IL23R fusion protein were expanded in Growth medium and membranes prepared by homogenization of a cell pellet from 18 T175 flasks (4° C. in subsequent steps). The cell pellet was lysed Tris 10 mM, 7.5, 1 mM EDTA and protease inhibitors (Complete, Roche) and homogenized using a 15 mL glass-dounce by 50 strokes. The homogenate was spun at spin @1500 rpm for 10 min, the supernatant transferred to SV-34 tubes and spun at 40000 g for 20 min at 4° C. to pellet the crude membranes. The supernatant was then removed, the pellet resuspended in 5 mL buffer containing 50 mM HEPES pH 7.4, 5 mM EGTA, and 5 mM MgCl2, and homogenized. Aliquots of the resuspended and homogenized membranes containing the Nluc-IL23R fusion protein were stored at −80° C. until use.
The plate was sealed with light impermeable plate seals, and incubated on a orbital shaker 400 rpm for 2 hours at room temperature. To determine the BRET ratio, the plate seal was removed and 25 μL of the Nanoluc substrate (Promega N1572) diluted 1:500 was added to each well and incubated for 1-2 minutes on an orbital shaker at 400 rpm. […] The BRET ratio was calculated as the fluorescence from the TAMRA/nanoluc bioluminescence. The IC50 for each compound was determined by computer-aided curve fitting using a 4-parameter logistic (4PL) non-linear model.

Ki [nM]	Structure (SMILES)
5.09	CC(C)C[C@]1(C)NC(=O)[C@H](Cc2ccc3ccccc3c2)NC(=O)[C@H](Cc2ccc(OCCN)cc2)NC(=O)[C@@H]2CSCC(=O)CSC[C@H](NC(=O)[C@H](CO)NC(=O)c3ccc(cc3)CCNC(=O)CC[C@@H](C(=O)N[C@@H](CCCNC(=N)N)C(N)=O)NC1=O)C(=O)N[C@@H](Cc1c[nH]c3ccccc13)C(=O)N[C@@H](CCC(N)=O)C(=O)N2 [Compound 50, [4-(2-Aminoethyl)benzoyl](1c)*SC(2a)WQC(2a)[Y(2-aminoethoxy)][2-Nal][2-Me-Leu]E(1c)R-[NH2]] ([X20]SCWQC[AEF][2Nal][αMeL]ER-NH2; linker 3-6 via CH2COCH2; lactam N-10)

Same assay, conditions: Table 3-1; read-out: Ki hIL-23R

Ki [nM]	Structure (SMILES)
0.723	CC(C)C[C@]1(C)NC(=O)[C@H](Cc2ccc3ccccc3c2)NC(=O)[C@H](Cc2ccc(OCCN)cc2)NC(=O)[C@@H]2CCNC(=O)CC[C@H](NC(=O)[C@H](CCC(=O)N3CCCC3)NC(=O)Cc3ccc(cc3)CNC(=O)CC[C@@H](C(=O)N[C@@H](CCN)C(N)=O)NC1=O)C(=O)N[C@@H](Cc1c[nH]c3ccccc13)C(=O)N[C@@H](CCC(N)=O)C(=O)N2 [Compound 145, [4-Aminomethyl-phenylacetyl](1c)*[Q(pyrrolidin)]E(2c)WQ[Dab](2c)[Y(2-aminoethoxy)][2-Nal][2-Me-Leu]E(1c)[Dab]-[NH2]] ([X1]E(Pyrrolidide)EWQ[Dab][AEF][2Nal][αMeL]E[Dab]-NH2; lactam 3-6, N-10)
2.09	CC(C)C[C@]1(C)NC(=O)[C@H](Cc2ccc3ccccc3c2)NC(=O)[C@H](Cc2ccc(OCCN)cc2)NC(=O)[C@@H]2CSCC(=O)CSC[C@H](NC(=O)[C@H](CO)NC(=O)c3cccc(c3)CNC(=O)CC[C@@H](C(=O)N[C@@H](CCCNC(=N)N)C(=O)N[C@@H](Cc3ccncc3)C(N)=O)NC1=O)C(=O)N[C@@H](Cc1c[nH]c3ccccc13)C(=O)N[C@@H](CCC(N)=O)C(=O)N2 [Compound 79, [(3-Aminomethyl)benzoyl](1c)*SC(2a)WQC(2a)[Y(2-aminoethoxy)][2-Nal][2-Me-Leu]E(1c)R[3-(4-Pyridyl)-Ala]-[NH2]] ([3Amb]SCWQC[AEF][2Nal][αMeL]ER[4Pal]-NH2; linker 3-6 via CH2COCH2; lactam N-10)
0.0119	CC(C)C[C@]1(C)NC(=O)[C@H](Cc2ccc3ccccc3c2)NC(=O)[C@H](Cc2ccc(OCCN)cc2)NC(=O)[C@@H]2CSCC(=O)CSC[C@H](NC(=O)[C@H](CO)NC(=O)Cc3ccc(cc3)CNC(=O)CC[C@@H](C(=O)N[C@@H](CCCNC(=N)N)C(=O)N[C@@H](Cc3cccnc3)C(N)=O)NC1=O)C(=O)N[C@@H](Cc1c[nH]c3ccccc13)C(=O)N[C@@H](CCC(N)=O)C(=O)N2 [Compound 147, [4-Aminomethyl-phenylacetyl](1c)*SC(2a)WQC(2a)[Y(2-aminoethoxy)][2-Nal][2-Me-Leu]E(1c)R[3-(3-Pyridyl)-Ala]-[NH2]] ([X1]SCWQC[AEF][2Nal][αMeL]ER[3Pal]-NH2; linker 3-6 via CH2COCH2; lactam N-10)
1.01	CC(C)C[C@]1(C)NC(=O)[C@H](Cc2ccc3ccccc3c2)NC(=O)[C@H](Cc2ccc(OCCN)cc2)NC(=O)[C@@H]2CCNC(=O)CC[C@H](NC(=O)[C@H](CO)NC(=O)Cc3ccc(cc3)CNC(=O)CC[C@@H](C(=O)N[C@@H](CCN)C(N)=O)NC1=O)C(=O)N[C@@H](Cc1c[nH]c3ccccc13)C(=O)N[C@@H](CCC(=O)N1CCCC1)C(=O)N2 [Compound 146, [4-Aminomethyl-phenylacetyl](1c)*SE(2c)W[Q(pyrrolidin)][Dab](2c)[Y(2-aminoethoxy)][2-Nal][2-Me-Leu]E(1c)[Dab]-[NH2]] ([X1]SEWE(Pyrrolidide)[Dab][AEF][2Nal][αMeL]E[Dab]-NH2; lactam 3-6, N-10)
0.672	CC(C)C[C@]1(C)NC(=O)[C@H](Cc2ccc3ccccc3c2)NC(=O)[C@H](Cc2ccc(OCCN)cc2)NC(=O)[C@@H]2CSCC(=O)CSC[C@H](NC(=O)[C@H](CO)NC(=O)c3cccc(c3)CNC(=O)CC[C@@H](C(=O)N[C@@H](CCCNC(=N)N)C(=O)N[C@H](CC(N)=O)c3cccnc3)NC1=O)C(=O)N[C@@H](Cc1c[nH]c3ccccc13)C(=O)N[C@@H](CCC(N)=O)C(=O)N2 [Compound 151, [(3-Aminomethyl)benzoyl](1c)*SC(2a)WQC(2a)][Y(2-aminoethoxy)][2-Nal][2-Me-Leu]E(1c)R[3-Amino-3-(3′-pyridyl)propionyl]-[NH2]] ([3Amb]SCWQC[AEF][2Nal][αMeL]ER-X22; linker 3-6 via CH2COCH2; lactam N-10)
0.76	CC(C)C[C@]1(C)NC(=O)[C@H](Cc2ccc3ccccc3c2)NC(=O)[C@H](Cc2ccc(OCCN)cc2)NC(=O)[C@@H]2CCNC(=O)CC[C@H](NC(=O)[C@H](CO)NC(=O)c3cccc(c3)CNC(=O)CC[C@@H](C(=O)N[C@@H](CCCNC(=N)N)C(N)=O)NC1=O)C(=O)N[C@@H](Cc1c[nH]c3ccccc13)C(=O)N[C@@H](CCC(N)=O)C(=O)N2 [Compound 67, [(3-Aminomethyl)benzoyl](1c)*SE(2c)WQ[Dab](2c)[Y(2-aminoethoxy)][2-Nal][2-Me-Leu]E(1c)R-[NH2]] ([3Amb]SEWQ[Dab][AEF][2Nal][αMeL]ER-NH2; lactam 3-6, N-10)
0.612	CC(C)C[C@]1(C)NC(=O)[C@H](Cc2ccc3ccccc3c2)NC(=O)[C@H](Cc2ccc(OCCN)cc2)NC(=O)[C@@H]2CCNC(=O)CC[C@H](NC(=O)[C@H](CO)NC(=O)Cc3ccc(cc3)CNC(=O)CC[C@@H](C(=O)N[C@@H](CCN)C(N)=O)NC1=O)C(=O)N[C@@H](Cc1c[nH]c3c(F)cccc13)C(=O)N[C@@H](CCC(N)=O)C(=O)N2 [Compound 139, [4-Aminomethyl-phenylacetyl](1c)*SE(2c)[7-F-Trp]Q[Dab](2c)[Y(2-aminoethoxy)][2-Nal][2-Me-Leu]E(1c)[Dab]-[NH2]] ([X1]SE[Trp(7-F)]Q[Dab][AEF][2Nal][αMeL]E[Dab]-NH2; lactam 3-6, N-10)
5.1	CC(C)C[C@]1(C)NC(=O)[C@H](Cc2ccc3ccccc3c2)NC(=O)[C@H](Cc2ccc(OCCN)cc2)NC(=O)[C@@H]2CSCC(=O)CSC[C@H](NC(=O)[C@H](CO)NC(=O)c3ccc(cc3)CCNC(=O)CC[C@@H](C(=O)N[C@@H](CCCNC(=N)N)C(N)=O)NC1=O)C(=O)N[C@@H](Cc1c[nH]c3ccccc13)C(=O)N[C@@H](CCC(N)=O)C(=O)N2 [Compound 50, [4-(2-Aminoethyl)benzoyl](1c)*SC(2a)WQC(2a)[Y(2-aminoethoxy)][2-Nal][2-Me-Leu]E(1c)R-[NH2]] ([X20]SCWQC[AEF][2Nal][αMeL]ER-NH2; linker 3-6 via CH2COCH2; lactam N-10)
0.00897	CC(C)C[C@]1(C)NC(=O)[C@H](Cc2ccc3ccccc3c2)NC(=O)[C@H](Cc2ccc(OCCN)cc2)NC(=O)[C@@H]2CSCC(=O)CSC[C@H](NC(=O)[C@H](CO)NC(=O)c3cccc(c3)CNC(=O)CC[C@@H](C(=O)N[C@@H](CCN)C(=O)N[C@@H](Cc3cccnc3)C(N)=O)NC1=O)C(=O)N[C@@H](Cc1c[nH]c3ccccc13)C(=O)N[C@@H](CCC(N)=O)C(=O)N2 [Compound 148, [(3-Aminomethyl)benzoyl](1c)*SC(2a)WQC(2a)[Y(2-aminoethoxy)][2-Nal][2-Me-Leu]E(1c)[Dab][3-(3-Pyridyl)-Ala]-[NH2]] ([3Amb]SCWQC[AEF][2Nal][αMeL]E[Dab][3Pal]-NH2; linker 3-6 via CH2COCH2; lactam N-10)

Same assay, conditions: hIL-23R, Ki from IC50 by Cheng-Prusoff equation; read-out: Ki determined affinity

Ki [nM]	Structure (SMILES)
0.057	CC(C)C[C@]1(C)NC(=O)[C@H](Cc2ccc3ccccc3c2)NC(=O)[C@H](Cc2ccc(OCCN)cc2)NC(=O)[C@@H]2CSCC(=O)CSC[C@H](NC(=O)[C@H](CO)NC(=O)Cc3ccc(cc3)CNC(=O)CC[C@@H](C(=O)N[C@@H](CCCNC(=N)N)C(N)=O)NC1=O)C(=O)N[C@@H](Cc1c[nH]c3ccccc13)C(=O)N[C@@H](CCC(N)=O)C(=O)N2 [Compound 52, [4-Aminomethyl-phenylacetyl](1c)*SC(2a)WQC(2a)[Y(2-aminoethoxy)][2-Nal][2-Me-Leu]E(1c)R-[NH2]] ([X1]SCWQC[AEF][2Nal][αMeL]ER-NH2; linker 3-6 via CH2COCH2; lactam N-10)
